In paper PMC7375689 (Leukemia & lymphoma, 2020):
Where two headings read alike, the source gives them in different places.

Tests used:
[1] = single agent panobinostat; cited from earlier work
[2] = patients with relapsed multiple myeloma; cited from earlier work
[3] = single agent vorinostat; cited from earlier work
[4] = Plasma pharmacokinetics of AR-42 in AML patients; type: in vivo, human; conditions: for Tmax: median (SD)
[5] = Toxicity and dose limiting toxicity; type: in vivo, human; conditions: for dose limiting toxicities (DLTs): cycle 1
AML = assay: Clinical response; type: in vivo, human; conditions: of 13 patients enrolled, AR-42 followed by decitabine; responses all in DL3
miR-29b [6] = tested on: miR-29b
cancer cells = conditions: cited from earlier work
AML cell lines = conditions: cited from earlier work
miR-29b [7] = conditions: cited from earlier work
[8] = 20 mg (day 1, 3, 5), Day 1, cycle 1, plasma, geometric mean (SD)
[9] = 20 mg (day 1, 3, 5), Day 5, cycle 1, plasma, geometric mean (SD)
[10] = 40 mg (day 1, 3, 4, 5), Day 1, cycle 1, plasma, geometric mean (SD)
[11] = 40 mg (day 1, 3, 4, 5), Day 5, cycle 1, plasma, geometric mean (SD)
[12] = 40 mg (day 1, 3, 5), Day 1, cycle 1, plasma, geometric mean (SD)
[13] = 40 mg (day 1, 3, 5), Day 5, cycle 1, plasma, geometric mean (SD)
[14] = AR-42 followed by decitabine, all dose levels, 13 AML patients

## Cc1[nH]c2ccccc2c1CCNCc1ccc(/C=C/C(=O)NO)cc1 [panobinostat]
[1]
  patients who experienced fatigue: 47.4%

## Cn1cc(CNCC2CCN(c3ncc(C(=O)NO)cn3)CC2)c2ccccc21 [quisinostat]
[2]
  cardiac events: grade 3 and 4 cardiac events

## O=C(CCCCCCC(=O)Nc1ccccc1)NO [vorinostat]
[3]
  patients who experienced fatigue: 52%

## AR-42
[4]; [8]
  AUC0–4: 1.59 (2.13) μM h
  AUC0–∞: 1.77 (2.34) μM h
  Cl/F (apparent oral clearance): 36.11 (114.88) L/h
  T1/2: 7.36 (0.42) h
  Vz/F (apparent volume of distribution): 381.33 (1238.57) L
[4]; 20 mg (day 1, 3, 5), Day 1, cycle 1, plasma
  Tmax: 2.00 (1.32) h
[4]; [9]
  AUC0–4: 4.19 (0.54) μM h
  AUC0–∞: 4.63 (0.71) μM h
  Cl/F (apparent oral clearance): 13.84 (2.18) L/h
  Cmax: 350 nM
  T1/2: 6.91 (1.11) h
  Vz/F (apparent volume of distribution): 137.94 (14.39) L
[4]; 20 mg (day 1, 3, 5), Day 5, cycle 1, plasma
  Tmax: 2.00 (1.32) h
[4]; [10]
  AUC0–4: 11.33 (3.54) μM h
  AUC0–∞: 12.22 (4.24) μM h
  Cl/F (apparent oral clearance): 10.48 (2.98) L/h
  Cmax: 1010 nM
  T1/2: 7.63 (1.14) h
  Vz/F (apparent volume of distribution): 120.53 (35.87) L
[4]; 40 mg (day 1, 3, 4, 5), Day 1, cycle 1, plasma
  Tmax: 2.00 (2.36) h
[4]; [11]
  AUC0–4: 11.13 (3.36) μM h
  AUC0–∞: 14.42 (7.91) μM h
  Cl/F (apparent oral clearance): 8.88 (3.23) L/h
  Cmax: 960 nM
  T1/2: 9.98 (6.79) h
  Vz/F (apparent volume of distribution): 127.81 (54.36) L
[4]; 40 mg (day 1, 3, 4, 5), Day 5, cycle 1, plasma
  Tmax: 4.00 (2.60) h
[4]; [12]
  AUC0–4: 7.20 (1.06) μM h
  AUC0–∞: 7.90 (1.10) μM h
  Cl/F (apparent oral clearance): 16.22 (2.15) L/h
  Cmax: 710 nM
  T1/2: 6.63 (0.29) h
  Vz/F (apparent volume of distribution): 155.67 (27.03) L
[4]; 40 mg (day 1, 3, 5), Day 1, cycle 1, plasma
  Tmax: 2.00 (1.15) h
[4]; [13]
  AUC0–4: 6.94 (0.64) μM h
  AUC0–∞: 7.71 (1.10) μM h
  Cl/F (apparent oral clearance): 16.61 (2.22) L/h
  Cmax: 860 nM
  T1/2: 6.93 (1.26) h
  Vz/F (apparent volume of distribution): 166.11 (9.73) L
[4]; 40 mg (day 1, 3, 5), Day 5, cycle 1, plasma
  Tmax: 1.50 (0.29) h
[4]; read-out: Cmax values, DL1, days 1 and 5
  Cmax: 150 to 350 nM
[4]; read-out: Cmax values, DL2, days 1 and 5
  Cmax: 710 to 860 nM
[4]; read-out: Cmax values, DL3, days 1 and 5
  Cmax: 960 to 1010 nM
[5]; AR-42 followed by decitabine, 13 AML patients
  patients with worsening hypertension: 4
[5]; [14]
  Number of Patients with grade ≥ 3 in cycles 1 and 2: Alanine aminotransferase increased: 1
  Number of Patients with grade ≥ 3 in cycles 1 and 2: Alkalosis: 1
  Number of Patients with grade ≥ 3 in cycles 1 and 2: Aspartate aminotransferase increased: 2
  Number of Patients with grade ≥ 3 in cycles 1 and 2: Blood bilirubin increased: 1
  Number of Patients with grade ≥ 3 in cycles 1 and 2: Cardiac troponin increased: 1
  Number of Patients with grade ≥ 3 in cycles 1 and 2: Catheter-related infection: 2
  Number of Patients with grade ≥ 3 in cycles 1 and 2: Fall: 1
  Number of Patients with grade ≥ 3 in cycles 1 and 2: Febrile neutropenia: 9
  Number of Patients with grade ≥ 3 in cycles 1 and 2: Heart failure: 1
  Number of Patients with grade ≥ 3 in cycles 1 and 2: Hyperglycemia: 3
  Number of Patients with grade ≥ 3 in cycles 1 and 2: Hypertension: 4
  Number of Patients with grade ≥ 3 in cycles 1 and 2: Hyperuricemia: 1
  Number of Patients with grade ≥ 3 in cycles 1 and 2: Hypoalbuminemia: 1
  Number of Patients with grade ≥ 3 in cycles 1 and 2: Hypokalemia: 3
  Number of Patients with grade ≥ 3 in cycles 1 and 2: Hyponatremia: 5
  Number of Patients with grade ≥ 3 in cycles 1 and 2: Hypophosphatemia: 2
  Number of Patients with grade ≥ 3 in cycles 1 and 2: Hypotension: 2
  Number of Patients with grade ≥ 3 in cycles 1 and 2: Hypoxia: 6
  Number of Patients with grade ≥ 3 in cycles 1 and 2: Lung infection: 5
  Number of Patients with grade ≥ 3 in cycles 1 and 2: Rash maculo-papular: 1
  Number of Patients with grade ≥ 3 in cycles 1 and 2: Respiratory failure: 1
  Number of Patients with grade ≥ 3 in cycles 1 and 2: Sepsis: 3
  Number of Patients with grade ≥ 3 in cycles 1 and 2: Sinus tachycardia: 1
  Number of Patients with grade ≥ 3 in cycles 1 and 2: Syncope: 1
[5]; DL1: AR-42 20 mg daily days 1, 3, 5, then decitabine, 3 patients
  dose limiting toxicities (DLTs): no DLTs
[5]; DL2: AR-42 40 mg daily days 1, 3, 5, then decitabine, 3 patients
  dose limiting toxicities (DLTs): no DLTs
[5]; DL3: AR-42 40 mg daily days 1, 3, 4, 5, then decitabine
  dose limiting toxicities (DLTs): One DLT of polymicrobial sepsis and multi-organ failure
[5]; of the six patients with neutropenia in cycle 1
  patients who also experienced a grade 3 or 4 infection: 4
[5]; patients treated with AR-42
  cardiac toxicities: minimal cardiac toxicities
AML
  number of patients who achieved a CRi: 2
miR-29b [6]; DL1: AR-42 20 mg days 1, 3, 5, day 5 of cycle 1 over baseline
  increase of at least 100% in miR-29b expression: not observed
miR-29b [6]; DL2: AR-42 40 mg days 1, 3, 5, day 5 of cycle 1 over baseline
  increase in miR-29b expression of at least 100%: not observed
miR-29b [6]; DL3: AR-42 40 mg days 1, 3, 4, 5, day 5 of cycle 1 over baseline
  increase in miR-29b expression: not observed
miR-29b [6]; all dose levels, current schedule
  doubling in either the mature or primary miR at day 5 prior to decitabine administration: did not observe a doubling
miR-29b [6]; human, in vivo
  correlation between miR-29b ΔΔCT values and Cmax: weak correlation
Cancer cells
  IC50: submicromolar
AML cell lines; AML cell lines
  apoptosis: dose dependent apoptosis
  effect on cell cycle: cell cycle arrest at both S and G2/M phases
AML cell lines; sequential administration of AR-42 followed by decitabine, compared to either drug alone
  anti-leukemic activity: stronger anti-leukemic activity
miR-29b [7]; AML cells, 1 μM AR-42, after 24 h
  miR-29b expression: miR-29b induction
miR-29b [7]; Kasumi-1 AML cells, in vitro
  miR-29b expression: upregulated
miR-29b [7]; in vitro
  miR-29b transcription: increase
